From patent US10159685B2, “Vascular calcification” (Cambridge Enterprise Limited, priority 2016, dated 2018)
Read-outs that look alike come from different tables or passages of the source. Marks after values point to notes of the source that are not given here.

Assays:
[1] = test system: bovine vascular smooth muscle cells (bVSMCs); type: cell-based; settings: 7 days; for Cell viability of bVSMCs after seven days (MTT signal, relative to control): mean of three experiments
Experimental: The toxicity of the identified compounds to bovine VSMCs was measured using the MTT assay, which measures the activity of dehydrogenase enzymes of live cells. This assay can pick up both cell death and proliferation.
Bovine VSMCs were seeded in 96 well plates and cultured in M199/20% FCS for 1 day. Then, the cells were incubated with inhibitor concentrations from 0.5 to 100 μM (in M199 medium+5% FBS). The cells were incubated with the inhibitors for 7 days; every 2-3 days the medium −/+inhibitors was exchanged. Then, the MTT assay was performed. The stock vehicle DMSO was tested at corresponding concentrations to the inhibitors at 0.1% DMSO or less.

[2] = test system: human monocyte-macrophages (HMMs); assay: MTT toxicity assay, HMMs, seven days (Example 3); type: cell-based; settings: 7 days; for Cell viability by MTT, percent of control: mean of three experiments; for Toxicity to HMMs (in words): at a concentration of 100 μM
Experimental: A similar set of toxicity experiments was performed with human monocyte-macrophages (HMMs).

[3] = test system: bovine vascular smooth muscle cells (bVSMCs); assay: o-Cresolphthalein Ca2+ assay, bVSMC GAD calcification model (Examples 4 and 5); type: cell-based; settings: GAD-treated bVSMCs, 10 μM, 7 d
Experimental: (§1) For the bVSMCs a GAD medium (10 mM β-glycerophosphate/0.1 mM L-ascorbic acid-2-phosphate/10 nM dexamethasone) model was used to induce mineralization in bVSMCs. Accordingly, cells were seeded in tissue culture plates using M199/20% FCS culture medium and cultured overnight. The next day, cells were treated either with medium only (M199/5% FBS)+/−inhibitors, or with the GAD-medium (10 mM β-glycerophosphate/0.1 mM L-ascorbic acid-2-phosphate/[…] dexamethasone)+/−inhibitors.
Medium+/−inhibitors was exchanged every 2-3 days. […]
The o-Cresolphthalein assay is a spectrophotometric method for measuring Ca^2+-concentrations in cell/tissue lysates. Following the calcification experiments, cells are briefly washed to remove medium and 100 […]1 of 0.1 N HCl is added to each well to dissolve any mineral deposits. Then, the Ca^2+-concentration of the samples is measured spectrophotometrically (at 570 nm) in the o-cresolphthalein assay with the help of a CaCl2 standard curve in a concentration range of ˜0.02-270 µg Ca^2+/ml.
The commercial BioRad DC protein assay is based on the Lowry method, aka reaction of proteins with a copper-tartrate complex and subsequent reaction with Folin's reagent. Following the calcification experiment, cells are briefly washed to remove medium and 100 µl of solubilisation solution (0.1 M NaOH/1% SDS/DIW) is added to each well to lyse the cells. The protein concentrations of the lysates are subsequently determined in the BioRad DC assay as per supplier's instructions using BSA (bovine serum albumin) as standard.
The in vitro model is the same as the model used in example 4; bovine vascular smooth muscle cells (bVSMCs) cultured so that they produce extracellular matrix, with the addition of the GAD medium (10 mM β-glycerophosphate/0.1 mM L-ascorbic acid-2-phosphate/10 nM dexamethasone).
As above, cells were treated either with medium only (“no-additions”; NA)+/−inhibitors, or with the GAD-medium+/−inhibitors. The inhibitors used were PJ34 and minocyclin (MC) at 10 μM, 1 μM and 0.1 μM.
The methodology was the same as that described in example 4.

[4] = test system: PARP produced by a mammalian cell; settings: have been shown; cited from earlier work
[5] = test system: bovine vascular smooth muscle cells (bVSMCs); assay: Alizarin Red S staining, bVSMC GAD calcification model (Example 4); type: cell-based; settings: GAD-treated bVSMCs, 10 μM, 7 d, versus no inhibitor
Experimental: as §1
Medium+/−inhibitors was exchanged every 2-3 days. Bovine VSMCs were incubated for 7 d prior to assessment.
The Alizarin Red S staining is a visual/histological stain for tissue calcium deposits. Cells are briefly fixed in 4% paraformaldehyde/PIPES buffer pH 7.2 and subsequently stained for 5 min with Alizarin Red S (2% Alizarin Red S/DIW pH 4.2). Excess stain is removed by washing in DIW. Calcium mineral deposits are stained a bright orange red.

[6] = test system: human vascular smooth muscle cells (hVSMCs); assay: o-Cresolphthalein Ca2+ assay, hVSMC Ca/P calcification model (Examples 7-9); type: cell-based
Experimental: (§2) Primary hVSMCs were cultured in M199 media containing FBS (M199/5% FBS). They were plated at a known cell density, allowed to grow for 24 hours and then treated with control (DMSO only) or calcification media (DMSO containing 2.7 mM Calcium+2.5 mM phosphate)+/−inhibitors. After 6 days, calcification was assessed using the o-Cresolphthalein assay for quantification of Ca^2+ deposition and a BioRad protein assay for protein content.
Medium+/−inhibitors was exchanged every 2-3 days.
as §2, with “8” for “6”, “using” for “using the”
All of the compounds tested were used at a concentration of 3 μM. Medium+/−inhibitors was exchanged every 2-3 days.
as §2, with “phosphate)+/−compounds.” for “phosphate)+/−inhibitors.”, “8” for “6”, “using” for “using the”
These concentrations were chosen to mimic the systemic concentrations of these drugs following patient dosing according to the dose schedule in the prescribing information for each drug. Medium+/−inhibitors was exchanged every 2-3 days.

[7] = hVSMCs, 6 days, PJ34 10 μM, minocycline and cilostazol 0.5, 1 and 2 μM

Structure (SMILES) | Cell viability of bVSMCs after seven days (MTT signal, relative to control) ([1]; 0.5 uM) | Cell viability of bVSMCs after seven days (MTT signal, relative to control) ([1]; 1 uM) | Cell viability of bVSMCs after seven days (MTT signal, relative to control) ([1]; 2 uM) | Cell viability of bVSMCs after seven days (MTT signal, relative to control) ([1]; 5 uM) | Cell viability of bVSMCs after seven days (MTT signal, relative to control) ([1]; 10 uM) | Cell viability of bVSMCs after seven days (MTT signal, relative to control) ([1]; 20 uM) | Cell viability of bVSMCs after seven days (MTT signal, relative to control) ([1]; 50 uM) | Cell viability of bVSMCs after seven days (MTT signal, relative to control) ([1]; 100 uM) | Cell viability by MTT, percent of control ([2]; 0.5 uM) | Cell viability by MTT, percent of control ([2]; 1 uM) | Cell viability by MTT, percent of control ([2]; 2 uM) | Cell viability by MTT, percent of control ([2]; 5 uM) | Cell viability by MTT, percent of control ([2]; 10 uM) | Cell viability by MTT, percent of control ([2]; 20 uM) | Cell viability by MTT, percent of control ([2]; 50 uM) | Cell viability by MTT, percent of control ([2]; 100 uM) | Toxicity to HMMs (in words) [2] | Calcium levels (mass of calcium, FIG. 7B) compared to no inhibitors [3] | Normalised calcium levels (mass of calcium per mass of protein, FIG. 9B) [3] | Toxicity to bVSMCs (MTT assay, in words) ([1]; at 50 and 100 μM) | also measured
NC(=O)c1cccc(N)c1 [3-AB, 3-aminobenzamide] | 95.77 | 99.58 | 94.53 | 93.35* | 91.99* | 93.42* | 94.64 | 92.48* | 115.25 | 80.78 | 88.03 | 93.51 | 97.34 | 85.76 | 95.92 | 104.20 | relatively innocuous | no effect | slightly lower calcium levels |  | Toxicity to bVSMCs (MTT assay, in words) ([1]; at the concentrations tested (0.5 to 100 μM)): virtually non-toxic; Inhibition of PARP produced by a mammalian cell [4]: inhibit PARP
OCCN(CCO)c1nc(N2CCCCC2)c2nc(N(CCO)CCO)nc(N3CCCCC3)c2n1 [Dipyridamol, dipyridamol] |  |  |  |  |  |  |  |  |  |  |  |  |  |  |  |  |  | elevate calcium levels | elevate calcium levels | toxic | Degree of mineralization judged by eye (Alizarin Red S, FIG. 6) [5]: slightly worse
O=C1CCc2cc(OCCCCc3nnnn3C3CCCCC3)ccc2N1 [cilostazol] | 98.22 | 93.93 | 86.31* | 86.87* | 88.38* | 90.45* | 84.93* | 65.21* | 105.05 | 103.62 | 75.63 | 90.74 | 79.83 | 81.50 | 73.73 | 77.06 | relatively innocuous | no effect | does not appear to have an effect | toxic | Extracellular matrix calcification (summary statement) ([6]; bovine cell and human cell in vitro vascular calcification model): significantly reduce extracellular matrix calcification; Calcium levels (mass of calcium, FIG. 17) versus DMSO Ca+P positive control [6, 7]: reduce the calcium levels; Normalised calcium levels (mass of calcium per mass of protein, FIG. 19) [6, 7]: lower calcium levels significantly; Normalised calcium levels (mass of calcium per mass of protein, FIG. 22) ([6]; hVSMCs, 8 days, 3 μM): particularly effective; Inhibition of calcification, normalised results (FIG. 27) ([6]; hVSMCs, 8 days, concentrations between 0.05 μM and 3 μM): inhibit calcification significantly and repeatedly
